Literature values in patent US20230201147A1, “COCRYSTAL ANTIOXIDANTS OF PROTOCATECHUIC ACID WITH L-THEANINE FOR THE TREATMENT OF OXIDATIVE STRESS AND INFLAMMATORY CONDITIONS” (priority 2020, published 2023).

Tested on: thrombin-stimulated thromboxane formation
Details: whole blood

CCNC(=O)CC[C@H](N)C(=O)O [L-theanine, N-ethyl-L-glutamine]
inhibition of thrombin-stimulated thromboxane formation: potent inhibitor
